What was measured:
[1] = molecular target: Receptor-interacting serine/threonine-protein kinase 4 (Homo sapiens) (UniProt P57078); settings: Compound concentration 1000.0 nM
[2] = molecular target: Serine/threonine-protein kinase TNNI3K (Homo sapiens) (UniProt Q59H18); settings: Compound concentration 1000.0 nM
[3] = system: Tyrosine-protein kinase ABL1 (Homo sapiens), P00519 [F317L]; settings: Compound concentration 1000.0 nM
[4] = molecular target: Phosphatidylinositol 4,5-bisphosphate 3-kinase catalytic subunit beta isoform (Homo sapiens) (UniProt P42338); settings: Compound concentration 1000.0 nM
[5] = molecular target: Macrophage-stimulating protein receptor (Homo sapiens) (UniProt Q04912); settings: Compound concentration 1000.0 nM
[6] = molecular target: Phosphatidylinositol 5-phosphate 4-kinase type-2 gamma (Homo sapiens) (UniProt Q8TBX8); settings: Compound concentration 1000.0 nM
[7] = system: Proto-oncogene tyrosine-protein kinase receptor Ret (Homo sapiens), P07949 [V804M]; settings: Compound concentration 1000.0 nM
[8] = molecular target: cAMP-dependent protein kinase catalytic subunit alpha (Homo sapiens) (UniProt P17612); settings: Compound concentration 1000.0 nM
[9] = molecular target: Mitogen-activated protein kinase 7 (Homo sapiens) (UniProt Q13164); settings: Compound concentration 1000.0 nM
[10] = molecular target: Serine/threonine-protein kinase ULK1 (Homo sapiens) (UniProt O75385); settings: Compound concentration 1000.0 nM
[11] = molecular target: Dual specificity protein kinase TTK (Homo sapiens) (UniProt P33981); settings: Compound concentration 1000.0 nM
[12] = molecular target: Receptor tyrosine-protein kinase erbB-4 (Homo sapiens) (UniProt Q15303); settings: Compound concentration 1000.0 nM
[13] = molecular target: Tyrosine-protein kinase ITK/TSK (Homo sapiens) (UniProt Q08881); settings: Compound concentration 1000.0 nM
[14] = molecular target: Myosin-IIIa (Homo sapiens) (UniProt Q8NEV4); settings: Compound concentration 1000.0 nM
[15] = molecular target: Tyrosine-protein kinase Fes/Fps (Homo sapiens) (UniProt P07332); settings: Compound concentration 1000.0 nM
[16] = molecular target: Mitogen-activated protein kinase 13 (Homo sapiens) (UniProt O15264); settings: Compound concentration 1000.0 nM
[17] = molecular target: Mitogen-activated protein kinase kinase kinase 10 (Homo sapiens) (UniProt Q02779); settings: Compound concentration 1000.0 nM
[18] = molecular target: Cyclin-dependent kinase 17 (Homo sapiens) (UniProt Q00537); settings: Compound concentration 1000.0 nM
[19] = molecular target: Death-associated protein kinase 3 (Homo sapiens) (UniProt O43293); settings: Compound concentration 1000.0 nM
[20] = molecular target: D(1A) dopamine receptor (Homo sapiens) (UniProt P21728); settings: Compound concentration 10.0 uM
[21] = molecular target: Proto-oncogene tyrosine-protein kinase ROS (Homo sapiens) (UniProt P08922); settings: Compound concentration 1000.0 nM
[22] = molecular target: Mitogen-activated protein kinase kinase kinase 5 (Homo sapiens) (UniProt Q99683); settings: Compound concentration 1000.0 nM
[23] = molecular target: 3-phosphoinositide-dependent protein kinase 1 (Homo sapiens) (UniProt O15530); settings: Compound concentration 1000.0 nM
[24] = molecular target: Mitogen-activated protein kinase kinase kinase kinase 4 (Homo sapiens) (UniProt O95819); settings: Compound concentration 1000.0 nM
[25] = system: Epidermal growth factor receptor (Homo sapiens), P00533 [UNDEFINED MUTATION]; settings: Compound concentration 1000.0 nM
[26] = molecular target: Cyclin-dependent kinase 16 (Homo sapiens) (UniProt Q00536); settings: Compound concentration 1000.0 nM
[27] = molecular target: Fibroblast growth factor receptor 3 (Homo sapiens) (UniProt P22607); settings: Compound concentration 1000.0 nM
[28] = molecular target: Serine/threonine-protein kinase Nek1 (Homo sapiens) (UniProt Q96PY6); settings: Compound concentration 1000.0 nM
[29] = molecular target: Mitogen-activated protein kinase kinase kinase 11 (Homo sapiens) (UniProt Q16584); settings: Compound concentration 1000.0 nM
[30] = molecular target: Ankyrin repeat and protein kinase domain-containing protein 1 (Homo sapiens) (UniProt Q8NFD2); settings: Compound concentration 1000.0 nM
[31] = molecular target: Activin receptor type-2A (Homo sapiens) (UniProt P27037); settings: Compound concentration 1000.0 nM
[32] = molecular target: Activin receptor type-1 (Homo sapiens) (UniProt Q04771); settings: Compound concentration 1000.0 nM
[33] = molecular target: Rhodopsin kinase GRK1 (Homo sapiens) (UniProt Q15835); settings: Compound concentration 1000.0 nM
[34] = molecular target: Mitogen-activated protein kinase kinase kinase 6 (Homo sapiens) (UniProt O95382); settings: Compound concentration 1000.0 nM
[35] = molecular target: High affinity nerve growth factor receptor (Homo sapiens) (UniProt P04629); settings: Compound concentration 1000.0 nM
[36] = molecular target: STE20-like serine/threonine-protein kinase (Homo sapiens) (UniProt Q9H2G2); settings: Compound concentration 1000.0 nM
[37] = system: Leucine-rich repeat serine/threonine-protein kinase 2 (Homo sapiens), Q5S007 [G2019S]; settings: Compound concentration 1000.0 nM
[38] = molecular target: Calcium/calmodulin-dependent protein kinase kinase 1 (Homo sapiens) (UniProt Q8N5S9); settings: Compound concentration 1000.0 nM
[39] = molecular target: Focal adhesion kinase 1 (Homo sapiens) (UniProt Q05397); settings: Compound concentration 1000.0 nM
[40] = molecular target: Casein kinase II subunit alpha (Homo sapiens) (UniProt P68400); settings: Compound concentration 1000.0 nM
[41] = molecular target: 5-hydroxytryptamine receptor 2B (Homo sapiens, UniProt P41595); experiment: Panlabs assay (HTR2B); parameters: compound concentration 10 uM
[42] = molecular target: Adenosine receptor A1 (Homo sapiens) (UniProt P30542); settings: Compound concentration 10.0 uM

Chain of Serine/threonine-protein kinase Nek1 (Homo sapiens) (Q96PY6 whole entry): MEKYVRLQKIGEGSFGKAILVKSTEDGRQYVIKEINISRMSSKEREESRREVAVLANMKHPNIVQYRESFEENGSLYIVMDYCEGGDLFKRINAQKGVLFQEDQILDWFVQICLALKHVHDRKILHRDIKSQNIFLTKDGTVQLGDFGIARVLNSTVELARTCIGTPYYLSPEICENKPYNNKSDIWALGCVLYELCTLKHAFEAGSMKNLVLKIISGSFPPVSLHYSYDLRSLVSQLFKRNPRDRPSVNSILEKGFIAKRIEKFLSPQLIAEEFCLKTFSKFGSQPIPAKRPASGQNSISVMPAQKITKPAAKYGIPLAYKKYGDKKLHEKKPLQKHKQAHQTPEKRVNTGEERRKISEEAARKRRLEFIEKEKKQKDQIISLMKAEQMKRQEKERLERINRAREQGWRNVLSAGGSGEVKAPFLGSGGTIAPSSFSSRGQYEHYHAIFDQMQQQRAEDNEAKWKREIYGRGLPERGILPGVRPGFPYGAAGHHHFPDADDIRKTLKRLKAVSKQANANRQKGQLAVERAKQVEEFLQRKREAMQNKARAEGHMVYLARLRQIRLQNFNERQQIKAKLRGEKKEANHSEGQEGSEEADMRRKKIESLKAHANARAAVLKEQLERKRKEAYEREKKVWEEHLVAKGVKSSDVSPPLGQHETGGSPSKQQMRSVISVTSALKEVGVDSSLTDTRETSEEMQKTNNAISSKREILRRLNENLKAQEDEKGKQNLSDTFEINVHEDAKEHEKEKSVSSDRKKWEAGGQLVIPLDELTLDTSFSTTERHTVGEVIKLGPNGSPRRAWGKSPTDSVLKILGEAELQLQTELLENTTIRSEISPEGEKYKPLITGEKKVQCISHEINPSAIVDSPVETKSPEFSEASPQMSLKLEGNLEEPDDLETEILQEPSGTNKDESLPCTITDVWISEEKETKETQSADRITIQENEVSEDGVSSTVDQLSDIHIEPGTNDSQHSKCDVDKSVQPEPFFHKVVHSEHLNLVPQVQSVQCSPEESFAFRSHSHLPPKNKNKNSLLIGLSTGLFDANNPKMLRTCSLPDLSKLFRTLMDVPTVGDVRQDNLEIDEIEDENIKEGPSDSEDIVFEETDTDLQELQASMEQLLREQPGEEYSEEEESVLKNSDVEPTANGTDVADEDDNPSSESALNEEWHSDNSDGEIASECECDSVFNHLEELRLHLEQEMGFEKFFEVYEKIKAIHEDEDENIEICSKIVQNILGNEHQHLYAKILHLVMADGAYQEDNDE
Chain of Tyrosine-protein kinase ITK/TSK (Homo sapiens) (Q08881 whole entry): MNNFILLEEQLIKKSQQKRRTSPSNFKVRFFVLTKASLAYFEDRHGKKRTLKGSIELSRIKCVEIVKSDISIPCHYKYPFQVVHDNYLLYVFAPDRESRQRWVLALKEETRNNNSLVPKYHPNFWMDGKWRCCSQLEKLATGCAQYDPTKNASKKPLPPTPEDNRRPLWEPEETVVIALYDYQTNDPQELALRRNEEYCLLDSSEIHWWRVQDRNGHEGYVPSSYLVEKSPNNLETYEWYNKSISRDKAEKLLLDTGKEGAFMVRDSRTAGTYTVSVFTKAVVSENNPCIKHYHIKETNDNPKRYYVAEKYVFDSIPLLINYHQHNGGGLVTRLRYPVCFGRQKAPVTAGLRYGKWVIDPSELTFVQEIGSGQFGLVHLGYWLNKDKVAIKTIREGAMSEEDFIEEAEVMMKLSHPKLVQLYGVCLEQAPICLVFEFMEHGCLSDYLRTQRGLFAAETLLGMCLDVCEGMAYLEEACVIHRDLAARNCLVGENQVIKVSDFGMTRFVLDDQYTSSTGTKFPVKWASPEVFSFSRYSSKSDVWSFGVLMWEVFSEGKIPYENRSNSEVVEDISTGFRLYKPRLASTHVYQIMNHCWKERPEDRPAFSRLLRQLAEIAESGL
Chain of Ankyrin repeat and protein kinase domain-containing protein 1 (Homo sapiens) (Q8NFD2 whole entry, the tested form may be a part): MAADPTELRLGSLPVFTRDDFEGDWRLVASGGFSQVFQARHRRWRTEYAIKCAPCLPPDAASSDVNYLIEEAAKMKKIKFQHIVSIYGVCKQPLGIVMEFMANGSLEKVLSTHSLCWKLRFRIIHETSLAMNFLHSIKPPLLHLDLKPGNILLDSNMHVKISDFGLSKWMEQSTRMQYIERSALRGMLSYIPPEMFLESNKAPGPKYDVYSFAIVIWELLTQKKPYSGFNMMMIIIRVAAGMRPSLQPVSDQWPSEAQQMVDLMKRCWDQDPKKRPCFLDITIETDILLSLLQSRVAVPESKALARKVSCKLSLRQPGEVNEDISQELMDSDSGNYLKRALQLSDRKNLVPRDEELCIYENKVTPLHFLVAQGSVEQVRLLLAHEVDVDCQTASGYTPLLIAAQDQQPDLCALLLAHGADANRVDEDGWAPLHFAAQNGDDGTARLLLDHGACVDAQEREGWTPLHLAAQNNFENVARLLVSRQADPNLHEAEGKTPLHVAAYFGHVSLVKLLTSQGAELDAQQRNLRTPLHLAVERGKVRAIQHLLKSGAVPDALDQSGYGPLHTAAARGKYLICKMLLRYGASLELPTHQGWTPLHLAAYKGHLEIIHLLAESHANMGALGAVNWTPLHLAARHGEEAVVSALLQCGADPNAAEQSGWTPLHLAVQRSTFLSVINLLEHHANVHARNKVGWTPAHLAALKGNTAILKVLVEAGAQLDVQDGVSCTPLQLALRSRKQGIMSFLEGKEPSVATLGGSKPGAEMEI
Chain of Serine/threonine-protein kinase TNNI3K (Homo sapiens) (Q59H18 whole entry): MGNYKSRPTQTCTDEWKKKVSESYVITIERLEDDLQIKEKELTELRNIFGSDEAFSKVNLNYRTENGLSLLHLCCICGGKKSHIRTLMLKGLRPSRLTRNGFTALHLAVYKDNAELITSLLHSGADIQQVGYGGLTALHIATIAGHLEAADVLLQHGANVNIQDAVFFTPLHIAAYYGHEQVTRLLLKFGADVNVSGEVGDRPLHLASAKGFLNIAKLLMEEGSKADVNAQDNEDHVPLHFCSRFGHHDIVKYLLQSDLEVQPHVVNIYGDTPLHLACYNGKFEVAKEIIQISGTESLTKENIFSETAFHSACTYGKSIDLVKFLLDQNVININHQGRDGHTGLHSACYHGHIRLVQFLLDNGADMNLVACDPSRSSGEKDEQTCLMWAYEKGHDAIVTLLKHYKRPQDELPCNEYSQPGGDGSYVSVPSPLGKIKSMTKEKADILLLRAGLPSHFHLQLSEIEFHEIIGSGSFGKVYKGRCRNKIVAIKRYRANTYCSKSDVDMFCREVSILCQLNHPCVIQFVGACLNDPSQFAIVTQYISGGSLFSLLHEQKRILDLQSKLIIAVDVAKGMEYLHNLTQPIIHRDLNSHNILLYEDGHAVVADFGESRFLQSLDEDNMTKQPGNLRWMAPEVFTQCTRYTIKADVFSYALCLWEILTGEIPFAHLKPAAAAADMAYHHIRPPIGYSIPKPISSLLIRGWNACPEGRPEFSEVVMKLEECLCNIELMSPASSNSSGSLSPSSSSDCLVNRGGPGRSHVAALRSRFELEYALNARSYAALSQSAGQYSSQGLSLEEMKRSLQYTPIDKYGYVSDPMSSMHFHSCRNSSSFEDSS
Chain of Activin receptor type-2A (Homo sapiens) (P27037 whole entry): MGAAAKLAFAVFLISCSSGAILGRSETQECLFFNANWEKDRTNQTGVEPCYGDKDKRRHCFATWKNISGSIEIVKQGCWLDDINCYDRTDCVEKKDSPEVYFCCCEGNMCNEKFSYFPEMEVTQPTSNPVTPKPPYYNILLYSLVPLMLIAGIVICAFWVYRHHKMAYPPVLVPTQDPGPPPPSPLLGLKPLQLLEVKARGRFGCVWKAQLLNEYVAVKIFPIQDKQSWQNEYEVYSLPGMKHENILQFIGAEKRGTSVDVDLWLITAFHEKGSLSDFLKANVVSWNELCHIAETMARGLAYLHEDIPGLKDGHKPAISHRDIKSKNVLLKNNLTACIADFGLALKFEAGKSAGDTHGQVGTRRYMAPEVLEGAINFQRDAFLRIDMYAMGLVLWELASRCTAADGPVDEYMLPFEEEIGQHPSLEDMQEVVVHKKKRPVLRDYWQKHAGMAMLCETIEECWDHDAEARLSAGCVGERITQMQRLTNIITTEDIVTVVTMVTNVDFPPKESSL
Chain of 3-phosphoinositide-dependent protein kinase 1 (Homo sapiens) (O15530 whole entry): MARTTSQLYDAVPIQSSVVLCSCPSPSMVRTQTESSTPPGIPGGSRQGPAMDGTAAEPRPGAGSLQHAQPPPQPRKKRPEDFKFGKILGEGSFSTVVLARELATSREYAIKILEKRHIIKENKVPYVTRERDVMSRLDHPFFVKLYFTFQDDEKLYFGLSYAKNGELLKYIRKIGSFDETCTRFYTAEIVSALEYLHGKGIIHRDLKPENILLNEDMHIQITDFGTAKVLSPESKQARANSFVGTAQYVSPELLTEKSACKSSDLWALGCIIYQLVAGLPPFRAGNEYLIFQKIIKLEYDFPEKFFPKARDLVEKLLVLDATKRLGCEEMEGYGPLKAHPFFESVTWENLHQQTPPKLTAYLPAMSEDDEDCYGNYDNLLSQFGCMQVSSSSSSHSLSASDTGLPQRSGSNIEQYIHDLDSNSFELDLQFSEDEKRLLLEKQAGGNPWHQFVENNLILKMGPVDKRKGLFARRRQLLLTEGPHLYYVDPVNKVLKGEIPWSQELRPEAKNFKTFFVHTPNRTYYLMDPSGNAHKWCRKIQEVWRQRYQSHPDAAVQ
Chain of Death-associated protein kinase 3 (Homo sapiens) (O43293 whole entry, looked up): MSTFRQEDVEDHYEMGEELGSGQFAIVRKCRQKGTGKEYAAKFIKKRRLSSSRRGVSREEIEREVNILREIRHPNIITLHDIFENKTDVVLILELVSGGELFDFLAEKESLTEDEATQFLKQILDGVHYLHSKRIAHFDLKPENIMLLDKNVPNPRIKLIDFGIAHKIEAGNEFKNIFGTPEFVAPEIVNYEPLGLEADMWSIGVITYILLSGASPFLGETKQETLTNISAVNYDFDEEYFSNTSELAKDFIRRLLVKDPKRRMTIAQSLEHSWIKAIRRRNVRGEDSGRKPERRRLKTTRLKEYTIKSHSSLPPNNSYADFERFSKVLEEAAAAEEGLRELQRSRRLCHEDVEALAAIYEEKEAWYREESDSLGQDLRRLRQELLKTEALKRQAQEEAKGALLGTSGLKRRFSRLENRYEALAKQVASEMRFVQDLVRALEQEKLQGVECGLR

Structure (SMILES): FC(F)(F)c1ccc2c(c1)nc(-c1cccnc1)n2C1CC1 [MSD-CYP11B2-Negative-control]
- residual activity [1]: 95%
- residual activity [2]: 100%
- residual activity [3]: 100%
- residual activity [4]: 97%
- residual activity [5]: 100%
- residual activity [6]: 100%
- residual activity [7]: 100%
- residual activity [8]: 100%
- residual activity [9]: 100%
- residual activity [10]: 100%
- residual activity [11]: 100%
- residual activity [12]: 100%
- residual activity [13]: 100%
- residual activity [14]: 100%
- residual activity [15]: 100%
- residual activity [16]: 100%
- residual activity [17]: 100%
- residual activity [18]: 100%
- residual activity [19]: 100%
- inhibition [20]: -3.97%
- residual activity [21]: 100%
- residual activity [22]: 96%
- residual activity [23]: 94%
- residual activity [24]: 100%
- residual activity [25]: 100%
- residual activity [26]: 100%
- residual activity [27]: 100%
- residual activity [28]: 100%
- residual activity [29]: 100%
- residual activity [30]: 100%
- residual activity [31]: 100%
- residual activity [32]: 100%
- residual activity [33]: 100%
- residual activity [34]: 100%
- residual activity [35]: 100%
- residual activity [36]: 100%
- residual activity [37]: 100%
- residual activity [38]: 100%
- residual activity [39]: 100%
- residual activity [40]: 100%

Structure (SMILES): CC(C)(O)c1cncc(-c2nc3ccc(F)cc3n2C2CC2)c1 [MSD-CYP11B2]
- residual activity [1]: 100%
- residual activity [2]: 100%
- residual activity [3]: 100%
- residual activity [4]: 81%
- residual activity [5]: 100%
- residual activity [6]: 100%
- residual activity [7]: 100%
- residual activity [8]: 100%
- residual activity [9]: 100%
- residual activity [10]: 100%
- residual activity [11]: 100%
- residual activity [12]: 100%
- residual activity [13]: 100%
- residual activity [14]: 100%
- residual activity [15]: 100%
- residual activity [16]: 100%
- IC50 [41]: 5.33 µM
- residual activity [17]: 100%
- residual activity [18]: 100%
- residual activity [19]: 100%
- inhibition [20]: 0.87%
- residual activity [21]: 100%
- residual activity [22]: 100%
- residual activity [23]: 97%
- residual activity [24]: 72%
- residual activity [25]: 100%
- residual activity [26]: 100%
- residual activity [27]: 100%
- residual activity [28]: 100%
- residual activity [29]: 100%
- residual activity [30]: 100%
- residual activity [31]: 87%
- residual activity [32]: 100%
- residual activity [33]: 100%
- residual activity [34]: 100%
- residual activity [35]: 100%
- residual activity [36]: 100%
- residual activity [37]: 100%
- residual activity [38]: 100%
- residual activity [39]: 100%
- residual activity [40]: 100%
- inhibition [42]: 20%
